Laboratory results as given in patent US6841548B2, “Pharmaceutical preparations containing estra-1,3,5(10)-triene derivatives” (Schering AG, priority 1994, dated 2005).

Experiments:
ovariectomated rats [1] = assay: Hepatic parameters: total cholesterol levels in serum, enzymatic test; format: in vivo, rat; settings: Experiment A
Procedure: (§1) The laboratory animals, adult female rats (breeder: HSD/WIN:WU) were ovariectomated on day 14. Treatment started two weeks later by a single oral application per day of the respective test substance. The dosages given for esters refer to the steroid portion of the substances. The tests were made in three groups (A, B, C) at various points in time.
(§2) The procedure of allocating animals to groups was randomized. The experiment was carried out as a block test. The animals were weighed at the beginning and at the end of the experiment.
(§3) The start of treatment was defined as day 1 (=d1), treatment was finished on day 7 (=d7); the animals were killed on day 8, various organs (uteri, adrenal glands, liver) were removed, weighed and deep-frozen (−196° C.) for further examination.
(§4) Blood was taken from the retrobulbar plexus under ether anaesthesia prior to treatment (d0), and on (d4) and (d8). IGF1, angiotensin I, cholesterol and HDL cholesterol were determined in the serum obtained.
(§5) cholesterol/HDL: enzymatic tests, photometric determination, reagents by Dr Bruno Lange GmbH.

ovariectomated rats [2] = assay: Hepatic parameters: serum angiotensin I, modified RIA for renin activity; format: in vivo, rat; design: Angiotensin I: unit not given here; settings: for Angiotensin I: Experiment A
Text: as §1, with “time. This is why there is a deviation in control group values. The tests of series A, B, and C can therefore be compared among each other if the values for the respective control groups are taken into account.” for “time.”
as §2, §3, §4
angiotensin: modified RIA for renin activity by Sorin Co.

ovariectomated rats [3] = assay: Oral estrogenic effects: uterus weights in ovariectomated rats; format: in vivo, rat
Text: as §1, with “time. This is why there is a deviation in control group values. The tests of series A, B, and C can therefore be compared among each other if the values for the respective control groups are taken into account.” for “time.”
as §2, §3

ovariectomated rats [4] = assay: Oral estrogen treatment: serum IGF1 (somatomedin C), RIA; format: in vivo, rat; design: unit not given here; settings: Experiment A
Text: as §1, with “time. This is why there is a deviation in control group values. The tests of series A, B, and C can therefore be compared among each other if the values for the respective control groups are taken into account.” for “time.”
as §2, §3, §4
IGF1: RIA by bioMérieux Co.;

ovariectomated rats [5] = assay: Hepatic parameters: HDL cholesterol levels in serum, enzymatic test; format: in vivo, rat; settings: Experiment A
Text: as §1, with “time. This is why there is a deviation in control group values. The tests of series A, B, and C can therefore be compared among each other if the values for the respective control groups are taken into account.” for “time.”
as §2, §3, §4, §5

ovariectomated rats [6] = assay: Oral estrogenic effects: weights of adrenal glands in ovariectomated rats; format: in vivo, rat
Text: as §1, with “time. This is why there is a deviation in control group values. The tests of series A, B, and C can therefore be compared among each other if the values for the respective control groups are taken into account.” for “time.”
as §2, §3

[7] = oral, humans, Goldzieher study; cited from earlier work
[8] = day 4, 0.1 μg/animal/day p.o. d1-d7
[9] = day 4, 1 μg/animal/day p.o. d1-d7
[10] = day 4, 10 μg/animal/day p.o. d1-d7
[11] = day 4, 100 μg/animal/day p.o. d1-d7
[12] = day 8, 0.1 μg/animal/day p.o. d1-d7
[13] = day 8, 1 μg/animal/day p.o. d1-d7
[14] = day 8, 10 μg/animal/day p.o. d1-d7
[15] = day 8, 100 μg/animal/day p.o. d1-d7
[16] = Experiment A, 0.1 μg/animal/day p.o. d1-d7
[17] = Experiment A, 1 μg/animal/day p.o. d1-d7
[18] = Experiment A, 10 μg/animal/day p.o. d1-d7
[19] = Experiment A, 100 μg/animal/day p.o. d1-d7
[20] = Experiment B, 10 μg/animal/day p.o. d1-d7

Total cholesterol levels (mean value ± standard deviation) (ovariectomated rats [1]; [8]): 81.0 ± 3.3 mg/dL
Total cholesterol levels (mean value ± standard deviation) (ovariectomated rats [1]; [9]): 82.4 ± 15.8 mg/dL
Total cholesterol levels (mean value ± standard deviation) (ovariectomated rats [1]; [10]): 30.3 ± 9.6 mg/dL
Total cholesterol levels (mean value ± standard deviation) (ovariectomated rats [1]; [11]): 6.8 ± 3.2 mg/dL
Total cholesterol levels (mean value ± standard deviation) (ovariectomated rats [1]; [12]): 86.5 ± 9.6 mg/dL
Total cholesterol levels (mean value ± standard deviation) (ovariectomated rats [1]; [13]): 80.2 ± 14.4 mg/dL
Total cholesterol levels (mean value ± standard deviation) (ovariectomated rats [1]; [14]): 39.8 ± 10.2 mg/dL
Total cholesterol levels (mean value ± standard deviation) (ovariectomated rats [1]; [15]): 5.5 ± 3.3 mg/dL
Angiotensin I (ovariectomated rats [2]; [8]): 408.2 ± 31.2
Angiotensin I (ovariectomated rats [2]; [9]): 402.2 ± 30.3
Angiotensin I (ovariectomated rats [2]; [10]): 572.2 ± 35.0
Angiotensin I (ovariectomated rats [2]; [11]): 930.1 ± 146.2
Angiotensin I (ovariectomated rats [2]; [12]): 473.7 ± 19.7
Angiotensin I (ovariectomated rats [2]; [13]): 492.6 ± 29.1
Angiotensin I (ovariectomated rats [2]; [14]): 498.7 ± 26.1
Angiotensin I (ovariectomated rats [2]; [15]): 833.1 ± 137.2
Effect on angiotensin I (AI) values, in words (ovariectomated rats [2]; doses of 10 or 100 μg, detectable as early as day 4): sharp increases of AI
HDL cholesterol levels (mean value ± standard deviation) (ovariectomated rats [5]; [8]): 49.6 ± 2.9 mg/dL
HDL cholesterol levels (mean value ± standard deviation) (ovariectomated rats [5]; [9]): 47.1 ± 8.5 mg/dL
HDL cholesterol levels (mean value ± standard deviation) (ovariectomated rats [5]; [10]): 19.5 ± 8.4 mg/dL
HDL cholesterol levels (mean value ± standard deviation) (ovariectomated rats [5]; [11]): 3.6 ± 1.3 mg/dL
HDL cholesterol levels (mean value ± standard deviation) (ovariectomated rats [5]; [12]): 52.2 ± 4.1 mg/dL
HDL cholesterol levels (mean value ± standard deviation) (ovariectomated rats [5]; [13]): 49.5 ± 6.9 mg/dL
HDL cholesterol levels (mean value ± standard deviation) (ovariectomated rats [5]; [14]): 26.5 ± 7.8 mg/dL
HDL cholesterol levels (mean value ± standard deviation) (ovariectomated rats [5]; [15]): 2.4 ± 0.9 mg/dL
Structure (SMILES): C#C[C@]1(O)CC[C@H]2[C@@H]3CCc4cc(O)ccc4[C@H]3CC[C@@]21C [EE, ethinyl estradiol]
Uterus weights (mean value) (ovariectomated rats [3]; [16]): 152.2 mg
Uterus weights (mean value) (ovariectomated rats [3]; [17]): 195.8 mg
Uterus weights (mean value) (ovariectomated rats [3]; [18]): 282.4 mg
Uterus weights (mean value) (ovariectomated rats [3]; [19]): 441.2 mg
Uterus weights (mean value) (ovariectomated rats [3]; [20]): 352.59 mg
IGF1 (= somatomedin C) (ovariectomated rats [4]; 100 μg/animal/day p.o. d1-d7, d 0 (prior to treatment)): 704.6 ± 70.4
IGF1 (= somatomedin C) (ovariectomated rats [4]; 100 μg/animal/day p.o. d1-d7, d 4): 547.0 ± 88.7
IGF1 (= somatomedin C) (ovariectomated rats [4]; 100 μg/animal/day p.o. d1-d7, d 8): 393.6 ± 71.1
Weights of adrenal glands (mean value) (ovariectomated rats [6]; [16]): 53.7 mg
Weights of adrenal glands (mean value) (ovariectomated rats [6]; [17]): 58.9 mg
Weights of adrenal glands (mean value) (ovariectomated rats [6]; [18]): 59.0 mg
Weights of adrenal glands (mean value) (ovariectomated rats [6]; [19]): 80.8 mg
Weights of adrenal glands (mean value) (ovariectomated rats [6]; [20]): 56.6 mg
Highest AUC found, measured 0 to 24 hours after application [7]: 2.121 ng·h/mL
Lowest AUC, measured 0 to 24 hours after application [7]: 0.284 ng·h/mL
